Test results published in PubChem BioAssay AID2060912 (Molecular Pharmacology Branch, DTP, NCI, 2025).

Test system: HUVEC/MSC spheroids viability
Assay: Human HUVEC/MSC cell line growth inhibition [KRAS2];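 for viability, T/C: percent of DMSO vehicle control luminescence so 100% = untreated viability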
Settings: for IC50: curve of first compound; for viability, T/C: stronger effect = lower value
Outline: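 Endothelial cells (HUVEC) plus mesenchymal stem cells, cultured at 37 °C/5% CO2 and assembled into spheroids without cancer cells, served as a stromal control. Drug pairs and single agents spanned half-log ranges anchored to clinical Cmax.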

CC1COCCN1c1cc(-c2ccnn2C)c2ccnc(-c3ccn[nH]3)c2n1 (centres undefined) + CC1OCC2(CCN(c3cnc(Sc4ccnc(N)c4Cl)c(N)n3)CC2)C1N
IC50 (second compound 0.0316 µM): > 3000 nM
IC50 (second compound 0.1 µM): 2640 nM
IC50 (second compound 0.316 µM): 1900 nM
IC50 (second compound 1 µM): 2050 nM
IC50 (second compound 3.16 µM): 679 nM
IC50 (second compound 10 µM): 760 nM
viability, T/C (second compound 0.0316 µM, first compound 0.00949 µM): 97.8%
viability, T/C (second compound 0.0316 µM, first compound 0.03 µM): 99.4%
viability, T/C (second compound 0.0316 µM, first compound 0.0949 µM): 82.6%
viability, T/C (second compound 0.0316 µM, first compound 0.3 µM): 72.4%
viability, T/C (second compound 0.0316 µM, first compound 0.949 µM): 64.5%
viability, T/C (second compound 0.0316 µM, first compound 3 µM): 51.5%
viability, T/C (second compound 0.1 µM, first compound 0.00949 µM): 95.8%
viability, T/C (second compound 0.1 µM, first compound 0.03 µM): 95.7%
viability, T/C (second compound 0.1 µM, first compound 0.0949 µM): 83.4%
viability, T/C (second compound 0.1 µM, first compound 0.3 µM): 80.4%
viability, T/C (second compound 0.1 µM, first compound 0.949 µM): 62.1%
viability, T/C (second compound 0.1 µM, first compound 3 µM): 48.6%
viability, T/C (second compound 0.316 µM, first compound 0.00949 µM): 105%
viability, T/C (second compound 0.316 µM, first compound 0.03 µM): 101%
viability, T/C (second compound 0.316 µM, first compound 0.0949 µM): 78.9%
viability, T/C (second compound 0.316 µM, first compound 0.3 µM): 64.3%
viability, T/C (second compound 0.316 µM, first compound 0.949 µM): 55.3%
viability, T/C (second compound 0.316 µM, first compound 3 µM): 46.4%
viability, T/C (second compound 1 µM, first compound 0.00949 µM): 82.6%
viability, T/C (second compound 1 µM, first compound 0.03 µM): 94.7%
viability, T/C (second compound 1 µM, first compound 0.0949 µM): 78.3%
viability, T/C (second compound 1 µM, first compound 0.3 µM): 74.5%
viability, T/C (second compound 1 µM, first compound 0.949 µM): 61.6%
viability, T/C (second compound 1 µM, first compound 3 µM): 44.4%
viability, T/C (second compound 3.16 µM, first compound 0.00949 µM): 84.7%
viability, T/C (second compound 3.16 µM, first compound 0.03 µM): 90.5%
viability, T/C (second compound 3.16 µM, first compound 0.0949 µM): 69.1%
viability, T/C (second compound 3.16 µM, first compound 0.3 µM): 63.7%
viability, T/C (second compound 3.16 µM, first compound 0.949 µM): 45%
viability, T/C (second compound 3.16 µM, first compound 3 µM): 32.9%
viability, T/C (second compound 10 µM, first compound 0.00949 µM): 56.2%
viability, T/C (second compound 10 µM, first compound 0.03 µM): 65.5%
viability, T/C (second compound 10 µM, first compound 0.0949 µM): 61.7%
viability, T/C (second compound 10 µM, first compound 0.3 µM): 58.2%
viability, T/C (second compound 10 µM, first compound 0.949 µM): 48%
viability, T/C (second compound 10 µM, first compound 3 µM): 24.7%

CC(C)n1nc(-c2ccc3oc(N)nc3c2)c2c(N)ncnc21 + COc1cc2nc(C)nc(NC(C)c3cc(N)cc(C(F)(F)F)c3)c2cc1OC1CCOC1
IC50 (second compound 0.0316 µM): 3.01 nM
IC50 (second compound 0.1 µM): 6.81 nM
IC50 (second compound 0.316 µM): 2.94 nM
IC50 (second compound 1 µM): 2.8 nM
IC50 (second compound 3.16 µM): 2.49 nM
IC50 (second compound 10 µM): 5.16 nM
viability, T/C (second compound 0.0316 µM, first compound 0.000316 µM): 78.9%
viability, T/C (second compound 0.0316 µM, first compound 0.001 µM): 80.2%
viability, T/C (second compound 0.0316 µM, first compound 0.00316 µM): 48.5%
viability, T/C (second compound 0.0316 µM, first compound 0.01 µM): 53%
viability, T/C (second compound 0.0316 µM, first compound 0.0316 µM): 49.2%
viability, T/C (second compound 0.0316 µM, first compound 0.1 µM): 44%
viability, T/C (second compound 0.1 µM, first compound 0.000316 µM): 82.9%
viability, T/C (second compound 0.1 µM, first compound 0.001 µM): 61.5%
viability, T/C (second compound 0.1 µM, first compound 0.00316 µM): 55.5%
viability, T/C (second compound 0.1 µM, first compound 0.01 µM): 46.5%
viability, T/C (second compound 0.1 µM, first compound 0.0316 µM): 50.5%
viability, T/C (second compound 0.1 µM, first compound 0.1 µM): 39.6%
viability, T/C (second compound 0.316 µM, first compound 0.000316 µM): 79.8%
viability, T/C (second compound 0.316 µM, first compound 0.001 µM): 76.2%
viability, T/C (second compound 0.316 µM, first compound 0.00316 µM): 48.2%
viability, T/C (second compound 0.316 µM, first compound 0.01 µM): 41.1%
viability, T/C (second compound 0.316 µM, first compound 0.0316 µM): 46.1%
viability, T/C (second compound 0.316 µM, first compound 0.1 µM): 39%
viability, T/C (second compound 1 µM, first compound 0.000316 µM): 76%
viability, T/C (second compound 1 µM, first compound 0.001 µM): 67.2%
viability, T/C (second compound 1 µM, first compound 0.00316 µM): 49.3%
viability, T/C (second compound 1 µM, first compound 0.01 µM): 34.5%
viability, T/C (second compound 1 µM, first compound 0.0316 µM): 51%
viability, T/C (second compound 1 µM, first compound 0.1 µM): 37.7%
viability, T/C (second compound 3.16 µM, first compound 0.000316 µM): 77%
viability, T/C (second compound 3.16 µM, first compound 0.001 µM): 71.8%
viability, T/C (second compound 3.16 µM, first compound 0.00316 µM): 44.2%
viability, T/C (second compound 3.16 µM, first compound 0.01 µM): 41.7%
viability, T/C (second compound 3.16 µM, first compound 0.0316 µM): 41.8%
viability, T/C (second compound 3.16 µM, first compound 0.1 µM): 43.1%
viability, T/C (second compound 10 µM, first compound 0.000316 µM): 62.7%
viability, T/C (second compound 10 µM, first compound 0.001 µM): 61%
viability, T/C (second compound 10 µM, first compound 0.00316 µM): 59.3%
viability, T/C (second compound 10 µM, first compound 0.01 µM): 33.7%
viability, T/C (second compound 10 µM, first compound 0.0316 µM): 41.2%
viability, T/C (second compound 10 µM, first compound 0.1 µM): 37.4%
